Data: patent US12569470B2, “Vasodilator and use thereof” (Bioradical Research Institute Corp., priority 2019, dated 2026)

Assays:
Format in all cases: cell-based
rat neuroid cells B50 [1] = assay: Toxicity evaluation on byproducts after reaction with singlet oxygen; details: byproducts after reaction with singlet oxygen, 50, 100, or 200 μmol/1, FIG. 6
Protocol: In a cell-free system, the RB was added to media (5% FCS-containing RPMI-1640 media) containing edaravone, ED2AP, and BisEp-C3 having a predetermined concentration (50, 100, or 200 μmol/1) and then irradiated with LED (G-LED) at 525 nm to generate singlet oxygen, whereby reacting each compound with singlet oxygen. The cell viability was measured in the same manner as in Example 7(1), except that the culture solution after the reaction was used as a medium of the neuroid cell B50. As a negative control (NC), the cell viability was measured in the same manner except that each compound and […] were not added in the cell-free system. Further, as a control (RB), the cell viability was measured in the same manner except that each compound was not added and only […] was added in the cell-free system.

rat neuroid cells B50 [2] = assay: Cytoprotection against singlet oxygen (Rose Bengal + G-LED), Alamar Blue fluorescence; details: 0, 12.5, 25, 50, or 100 μmol/1, RB 200 nmol/1 + G-LED 5 minutes, negative control being 100, FIG. 3
Protocol: Edaravone, ED2AP and BisEp-C3 were examined for whether they had the function of alleviating neuronopathy. Specifically, singlet oxygen was generated by combining Rose Bengal (RB), which is a sensitizer, with green light (G-LED), and the function of alleviating the cytotoxicity of the generated singlet oxygen was examined with the cellular activity being an indicator.
First, rat neuroid cells B50 were cultured in 12-well dishes at 2×10^5 cells/well (medium: RPMI-1640 medium containing 5% FCS) overnight. After the culturing, the medium of each well was replaced with HBSS (1,000 μl/well; phenol red-free Ca+, Mg+) containing 200 nmol/1 RB and edaravone, ED2AP, or BisEp-C3 having a predetermined concentration (0, 12.5, 25, 50, or 100 μmol/1). The dish was then irradiated with G-LED for 5 minutes to generate singlet oxygen. Thereafter, the medium of each well was replaced with 1,000 μl of HBSS, and Alamar Blue was added. The dish was then allowed to react for about 2 hours in an incubator at 37° C. and 5%CO2. After the reaction, fluorescence intensity (excitation wavelength: λ- 560 nm, fluorescence wavelength: λ-595 nm) was measured with a plate reader (infinite200, Tecan Trading AG). In this experimental system, the higher the cellular activity, the more Alamar Blue is taken up and the higher the fluorescence intensity. As a control, fluorescence intensity was measured in the same manner except that sodium azide (Azide, NaN3) was added instead of the compounds so as to achieve a concentration of 4 mmol/1. As a negative control (NC), fluorescence intensity was measured in the same manner except that RB was not added. The relative value of the fluorescence intensity in the sample to which each compound was added was calculated with the fluorescence intensity of the negative control being 100.

rat neuroid cells B50 [3] = assay: Toxicity evaluation, cell viability by Alamar Blue; details: 12.5, 25, 50, 100, or 200 μmol/1, 24 hours, FIG. 5
Protocol: Rat neuroid cells B50 were seeded in 12-well plates and then cultured. Edaravone (RC), ED2AP, or BisEp-C3 was added to each well so as to achieve a predetermined concentration (12.5, 25, 50, 100, or 200 μmol/1), and then incubated for 24 hours at 37° C. and 5% CO2. Cell viability in each well after the culture was measured using Alamar Blue.

CC1=NN(c2ccccc2)C(=O)C1 [Edaravone, 3-methyl-1-phenyl-5-pyrazolone, reference compound]
cell viability (cytotoxicity of byproducts) (rat neuroid cells B50 [1]): not cytotoxic at any concentration | relative value of the fluorescence intensity (rat neuroid cells B50 [2]): not recovered | cell viability (cytotoxicity) (rat neuroid cells B50 [3]): not cytotoxic at any concentration
